According to US20140256555A1, “METHODS FOR TREATING FLOWERING PLANTS WITH RIBOSE” (RiboCor, Inc., priority 2013, published 2014):

What was measured:
Hibiscus = assay: Watering with D-ribose solution, blooming of Hibiscus; assay type: in vivo; conditions: indoors for the winter months; 5 grams of D-ribose to one gallon of water
Source text: (§1) Plants treated with a solution of D-ribose in this example included Orchids, Christmas Cactus, Palm, Mother's-in-law Tongue/Snake Plant, Rosemary, Bamboo, Pothos, Hibiscus, Jade, Purple Passion, Aloe vera, Schefflera, Cacti, and Norfolk Island Pine.
(§2) The use of MIRACLE-GRO liquid plant food was stopped, then the use of a solution of D-ribose to treat the plants was started. Each week a fresh solution of D-ribose was made using 5 grams of D-ribose to one gallon of water.
This plant was taken inside in October for the winter months.

Orchids = assay: Watering with D-ribose solution, blooming of orchids; assay type: in vivo; conditions: 5 grams of D-ribose to one gallon of water
Source text: as §1, §2
The first subject was an orchid which had not bloomed in six plus years.

Christmas Cactus = assay: Watering with D-ribose solution, blooming of Christmas Cactus; assay type: in vivo; conditions: typically blooms only around Christmas and Easter; 5 grams of D-ribose to one gallon of water
Source text: as §1, §2
This variety of plant typically only blooms around the Christmas and Easter holidays each year for a few weeks up to a month or so, then it stops blooming.

Palm = assay: Watering with D-ribose solution, blooming of Palm; assay type: in vivo; conditions: plant had not bloomed in approximately fifteen years; 5 grams of D-ribose to one gallon of water
Source text: as §1, §2
This is typically regarded as a non-flowering type of plant. This plant had not bloomed in approximately fifteen years.

flowering plants = assay: Watering of house plants with D-ribose solution, observation of blooming; assay type: in vivo; conditions: 5 grams of D-ribose to one gallon of water, after MIRACLE-GRO was stopped
Source text: as §1, §2
Specific observations are noted below. While all the plants were extremely healthy and grew exceptionally well, traditional flowering varieties performed amazingly well.

Snake Plant = assay: Watering with D-ribose solution, blooming of Snake Plant; assay type: in vivo, Mother's-in-law Tongue/Snake Plant; conditions: had not bloomed in over 15 years, indoor plant; 5 grams of D-ribose to one gallon of water
Source text: as §1, §2
This is another example of plant typically regarded as a non-flowering type plant. […] It had not bloomed in over 15 years. While flowers on this plant are not unheard of, it is uncommon to bloom in the Minnesota climate and as an indoor plant.

Purple Waffle = assay: Growth of Purple Waffle plants over a 9 month period with weekly feeding; assay type: in vivo; conditions: 1× (1.5 mg/ml) or 2× (3 mg/ml) D-ribose weekly, versus control and MIRACLE-GRO fed plant
Protocol: The growth of four plants was observed over a 9 month period. One plant was not fed (control), but watered weekly. One plant was fed MIRACLE-GRO liquid plant food weekly based on product instructions of feeding every time you water by squeezing 10-20 drops into 1 quart of water. One plant was fed 1× (1.5 mg/ml) D-ribose weekly. One plant was fed 2× (3 mg/ml) D-ribose weekly.

O=C[C@H](O)[C@H](O)[C@H](O)CO [D-ribose]
blooming (Hibiscus): continuously bloomed
blooming, first orchid (Orchids; orchid which had not bloomed in six plus years): sparked two new stems full of blooms
blooming, second orchid (Orchids; orchid which had not bloomed in three plus years): showed the same results as subject one
blooming (Christmas Cactus): started to bloom early and sustained an abundance of continued blooms
blooming / flowering growth (Palm): grew an unusual type of growth that appeared to be a flowering/seed mechanism on two different stems
blooming observed in treated plants (flowering plants): Sustained blooming in many of the flowering plants
blooming / flowering growth (Snake Plant): grew unusual growths that appeared to be some type of flowering appendage
branching (Purple Waffle): increased branching compared to both the control and the MIRACLE-GRO fed plant
